Data on 2 compounds can be found in patent US10844064B2, “sGC stimulators” (Cyclerion Therapeutics, Inc., priority 2014, dated 2020).

In assay [1] the test system is obese mice. As to conditions: cited from earlier work.
Assay [2] concerns Guinea pig tracheal smooth muscle. Briefly: Electrical field stimulated guinea pig tracheal smooth muscle contraction (ex vivo). Conditions: sub-maximal EFS, cumulative dose response curve, three animals pooled; 95% Cl 0.78-0.94; read-out: IC50 (inhibition of EFS-induced baseline contraction). The text has this:
Electrical Field Stimulated Guinea Pig Tracheal Smooth Muscle In Vitro (ex vivo) Model for the Assessment of Bronchodilation.
Animals: Guinea pig, Dunkin Hartley, male, Full barrier-bred and certified free of specific micro-organisms on receipt 525-609 g on the experimental day, Harlan UK Ltd. Guinea pigs are housed in a group of 4 in solid-bottomed cages with Gold Flake bedding in a controlled environment (airflow, temperature and humidity). Food (FD1, Special Diet Services) and water are provided ad libitum.
On each experimental day, a guinea pig is killed by exposure to a rising concentration of CO2 and the trachea removed. […] Tissues are washed with Kreb's buffer and stimulated using the previously determined sub-maximal voltage for 1 hour to establish a stable baseline contraction prior to assessment of compound activity.
A cumulative dose response curve (DRC) to each test substance is then performed and changes in smooth muscle contraction measured. The effect of each test substance in each experiment is expressed as a percentage inhibition of the baseline contraction, normalized to the relevant vehicle controls. […] The data from all three experiments are pooled, the DRC plotted, and the test substance potency and efficacy determined.

Take `O=C(O)CCCCN(CCc1cc(F)ccc1OCc1ccc(-c2ccc(C(F)(F)F)cc2)cc1)Cc1ccc(C(=O)O)cc1` [BAY 60-2770]: in assay [1], the “effect on overactive bladder” value is on record as “ameliorates overactive bladder”.
A word on the IC50: it is the midpoint of a concentration-inhibition curve. Turning to `CC(C)[N+]1(C)[C@@H]2CC[C@H]1CC(OC(=O)C(CO)c1ccccc1)C2` (some centres unmarked) [Ipratropium bromide], in assay [2], the IC50 was found to be 0.86 nM.
